In one assay the target is T1, human V1a receptor (Homo sapiens, UniProt P37288).
T1 construct: expressed in transfected cells; host or cells: CHO K1 (ATCC), also stably transfected with a modified aequorin
In words: Cellular in vitro assay for determining vasopressin receptor activity (V1a, aequorin luminescence). Format: cell-based. The conditions noted are these: for pIC50: CHO cell line transfected with the human V1a receptor, [Arg8]-vasopressin at EC50 concentration, read-out: IC50 hV1a; for ratio IC50 hV2/hV1a: selectivity ratio of IC50 hV2 to IC50 hV1a.

Another assay has as its target T2, human V2 receptor (Homo sapiens, UniProt P30518).
T2 construct: expressed in transfected cells; host or cells: CHO K1 (ATCC) expressing firefly luciferase under a CRE-responsive promoter
In words: Cellular in vitro assay for determining vasopressin receptor activity (V2, CRE-luciferase). In kind it is cell-based. The settings on record: CHO cell line transfected with the human V2 receptor; [Arg8]-vasopressin at EC50 concentration; read-out: IC50 hV2. In short, it runs like this:
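Antagonism was measured as inhibition of a 3-h, EC50-level [Arg8]-vasopressin stimulation, with compounds tested at several concentrations, yielding IC50 values. The read-out was cAMP-driven CRE-luciferase luminescence after lysis, in recombinant CHO K1 cells carrying human V2 receptor. Cells were seeded in 2% FCS DMEM/F12 one day earlier.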

The values below come from patent US20210253557A1, “SUBSTITUTED TRIAZOLE DERIVATIVES AND USES THEREOF” (Bayer Pharma Aktiengesellschaft, priority 2017, published 2021).

pIC50: −log10 of the molar value.

T1 sequence (P37288 whole entry): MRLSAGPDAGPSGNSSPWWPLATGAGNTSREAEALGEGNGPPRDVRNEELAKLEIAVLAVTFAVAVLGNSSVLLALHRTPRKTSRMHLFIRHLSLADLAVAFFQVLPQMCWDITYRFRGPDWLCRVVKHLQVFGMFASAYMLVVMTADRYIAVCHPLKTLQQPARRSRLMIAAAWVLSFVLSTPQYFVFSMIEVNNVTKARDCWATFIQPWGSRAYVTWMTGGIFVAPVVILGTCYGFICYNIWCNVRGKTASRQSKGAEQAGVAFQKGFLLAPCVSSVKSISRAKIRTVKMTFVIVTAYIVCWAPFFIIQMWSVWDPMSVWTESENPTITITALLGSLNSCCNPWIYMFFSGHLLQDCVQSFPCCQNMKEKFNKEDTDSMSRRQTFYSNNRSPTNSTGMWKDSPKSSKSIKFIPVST
T2 sequence (P30518 whole entry): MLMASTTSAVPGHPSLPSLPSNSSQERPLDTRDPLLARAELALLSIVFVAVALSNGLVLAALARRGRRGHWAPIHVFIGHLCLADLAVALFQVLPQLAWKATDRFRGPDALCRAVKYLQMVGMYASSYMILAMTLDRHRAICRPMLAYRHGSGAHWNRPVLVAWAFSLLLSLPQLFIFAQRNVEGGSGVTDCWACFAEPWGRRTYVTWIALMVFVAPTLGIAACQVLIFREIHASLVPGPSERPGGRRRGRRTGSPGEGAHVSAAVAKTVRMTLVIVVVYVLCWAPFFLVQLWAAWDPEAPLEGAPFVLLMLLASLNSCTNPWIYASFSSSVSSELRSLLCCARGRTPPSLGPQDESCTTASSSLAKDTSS

In general, pIC50 refers to −log10 of the IC50, conventionally taken in molar units. As for `C[C@H](OC(N)=O)c1nc(Cn2nc(-c3ccc(Cl)cc3)n(C[C@H](O)C(F)(F)F)c2=O)nn1-c1ccccc1OC(F)(F)F` [Example 7, (1S)-1-{3-({3-(4-Chlorophenyl)-5-oxo-4-[(2S)-3,3,3-trifluoro-2-hydroxypropyl]-4,5-dihydro-1H-1,2,4-triazol-1-yl}methyl)-1-[2-(trifluoromethoxy)phenyl]-1H-1,2,4-triazol-5-yl}ethyl Carbamate], on human V1a receptor, the pIC50 is 8.44 and the “ratio IC50 hV2/hV1a” value stood at 7.4. The pIC50 at human V2 receptor was 7.57.

As to `C[C@@H](OC(N)=O)c1nc(Cn2nc(-c3ccc(Cl)cc3)n(C[C@H](O)C(F)(F)F)c2=O)nn1-c1ccccc1OC(F)(F)F` [Example 8, (1R)-1-{3-({3-(4-Chlorophenyl)-5-oxo-4-[(2S)-3,3,3-trifluoro-2-hydroxypropyl]-4,5-dihydro-1H-1,2,4-triazol-1-yl}methyl)-1-[2-(trifluoromethoxy)phenyl]-1H-1,2,4-triazol-5-yl}ethyl Carbamate], at human V1a receptor, the pIC50 was 9.07 and the “ratio IC50 hV2/hV1a” value is recorded as 190.5. Moreover, on human V2 receptor, the negative logarithm of the IC50 (pIC50) was 6.79.

For the molecule `C[C@H](OC(N)=O)c1nc(Cn2nc(-c3ccc(Cl)cc3)n(C[C@H](O)C(F)(F)F)c2=O)nn1-c1ccccc1S(N)(=O)=O` [Example 9, (1S)-1-[3-({3-(4-Chlorophenyl)-5-oxo-4-[(2S)-3,3,3-trifluoro-2-hydroxypropyl]-4,5-dihydro-1H-1,2,4-triazol-1-yl}methyl)-1-(2-sulfamoylphenyl)-1H-1,2,4-triazol-5-yl]ethyl Carbamate], at human V1a receptor, the pIC50 was 7.50 and the “ratio IC50 hV2/hV1a” value is 4.3. For the same molecule, the pIC50 on human V2 receptor was 6.87.

Consider `C[C@H](OC(N)=O)c1nc(Cn2nc(-c3ccc(Cl)cc3)n(C[C@H](O)C(F)(F)F)c2=O)nn1-c1ccccn1` [Example 10, (1S)-1-[3-({3-(4-Chlorophenyl)-5-oxo-4-[(2S)-3,3,3-trifluoro-2-hydroxypropyl]-4,5-dihydro-1H-1,2,4-triazol-1-yl}methyl)-1-(pyridin-2-yl)-1H-1,2,4-triazol-5-yl]ethyl Carbamate], for which, at human V1a receptor, the pIC50 is 7.28 and the “ratio IC50 hV2/hV1a” value was determined as 2.0. Further, on human V2 receptor, the pIC50 was 6.98.

Regarding `C[C@@H](OC(N)=O)c1nc(Cn2nc(-c3ccc(Cl)cc3)n(C[C@H](O)C(F)(F)F)c2=O)nn1-c1ccccn1` [Example 11, (1R)-1-[3-({3-(4-Chlorophenyl)-5-oxo-4-[(2S)-3,3,3-trifluoro-2-hydroxypropyl]-4,5-dihydro-1H-1,2,4-triazol-1-yl}methyl)-1-(pyridin-2-yl)-1H-1,2,4-triazol-5-yl]ethyl Carbamate], on human V1a receptor, the pIC50 was 6.94 and the “ratio IC50 hV2/hV1a” value came out at 2.0. The pIC50 at human V2 receptor is 6.65.

Take `C[C@H](OC(N)=O)c1nc(Cn2nc(-c3ccc(Cl)cc3)n(C[C@H](O)C(F)(F)F)c2=O)nn1-c1ncccc1F` [Example 12, (1S)-1-[3-({3-(4-Chlorophenyl)-5-oxo-4-[(2S)-3,3,3-trifluoro-2-hydroxypropyl]-4,5-dihydro-1H-1,2,4-triazol-1-yl}methyl)-1-(3-fluoropyridin-2-yl)-1H-1,2,4-triazol-5-yl]ethyl Carbamate]: on human V1a receptor, the negative-log IC50 (pIC50) is 7.45 and the “ratio IC50 hV2/hV1a” value came to 3.6. On human V2 receptor, the pIC50 was 6.90.

Take `C[C@@H](OC(N)=O)c1nc(Cn2nc(-c3ccc(Cl)cc3)n(C[C@H](O)C(F)(F)F)c2=O)nn1-c1ncccc1F` [Example 13, (1R)-1-[3-({3-(4-Chlorophenyl)-5-oxo-4-[(2S)-3,3,3-trifluoro-2-hydroxypropyl]-4,5-dihydro-1H-1,2,4-triazol-1-yl}methyl)-1-(3-fluoropyridin-2-yl)-1H-1,2,4-triazol-5-yl]ethyl Carbamate]: at human V1a receptor, the pIC50 was 7.87 and the “ratio IC50 hV2/hV1a” value came out at 2.6. Also, the pIC50 at human V2 receptor is 7.46.

For `C[C@H](OC(N)=O)c1nc(Cn2nc(-c3ccc(Cl)cc3)n(C[C@H](O)C(F)(F)F)c2=O)nn1-c1ncccc1Cl` [Example 14, (1S)-1-[3-({3-(4-Chlorophenyl)-5-oxo-4-[(2S)-3,3,3-trifluoro-2-hydroxypropyl]-4,5-dihydro-1H-1,2,4-triazol-1-yl}methyl)-1-(3-chloropyridin-2-yl)-1H-1,2,4-triazol-5-yl]ethyl Carbamate], the pIC50 at human V1a receptor was 8.76; at human V2 receptor, 7.28. For the same molecule, the “ratio IC50 hV2/hV1a” value at human V1a receptor was 29.7.

As for `C[C@@H](OC(N)=O)c1nc(Cn2nc(-c3ccc(Cl)cc3)n(C[C@H](O)C(F)(F)F)c2=O)nn1-c1ncccc1Cl` [Example 15, (1R)-1-[3-({3-(4-Chlorophenyl)-5-oxo-4-[(2S)-3,3,3-trifluoro-2-hydroxypropyl]-4,5-dihydro-1H-1,2,4-triazol-1-yl}methyl)-1-(3-chloropyridin-2-yl)-1H-1,2,4-triazol-5-yl]ethyl Carbamate], the pIC50 at human V1a receptor was 8.99; at human V2 receptor, 7.45. Also, the “ratio IC50 hV2/hV1a” value at human V1a receptor worked out at 34.8.

Consider `C[C@H](OC(N)=O)c1nc(Cn2nc(-c3ccc(Cl)cc3)n(C[C@H](O)C(F)(F)F)c2=O)nn1-c1ccc(Cl)cn1` [Example 16, (1S)-1-[3-({3-(4-Chlorophenyl)-5-oxo-4-[(2S)-3,3,3-trifluoro-2-hydroxypropyl]-4,5-dihydro-1H-1,2,4-triazol-1-yl}methyl)-1-(5-chloropyridin-2-yl)-1H-1,2,4-triazol-5-yl]ethyl Carbamate], for which the pIC50 was 6.80 at human V1a receptor and 7.28 at human V2 receptor. Besides, the “ratio IC50 hV2/hV1a” value on human V1a receptor worked out at 0.3.

As for `C[C@@H](OC(N)=O)c1nc(Cn2nc(-c3ccc(Cl)cc3)n(C[C@H](O)C(F)(F)F)c2=O)nn1-c1ccc(Cl)cn1` [Example 17, (1R)-1-[3-({3-(4-Chlorophenyl)-5-oxo-4-[(2S)-3,3,3-trifluoro-2-hydroxypropyl]-4,5-dihydro-1H-1,2,4-triazol-1-yl}methyl)-1-(5-chloropyridin-2-yl)-1H-1,2,4-triazol-5-yl]ethyl Carbamate], on human V1a receptor, the pIC50 was 6.25 and the “ratio IC50 hV2/hV1a” value stood at 0.3. In addition, the pIC50 on human V2 receptor was 6.82.

Consider `C[C@H](OC(N)=O)c1nc(Cn2nc(-c3ccc(Cl)cc3)n(C[C@H](O)C(F)(F)F)c2=O)nn1-c1ccncc1Cl` [Example 18, (1S)-1-[3-({3-(4-Chlorophenyl)-5-oxo-4-[(2S)-3,3,3-trifluoro-2-hydroxypropyl]-4,5-dihydro-1H-1,2,4-triazol-1-yl}methyl)-1-(3-chloropyridin-4-yl)-1H-1,2,4-triazol-5-yl]ethyl Carbamate], for which, at human V1a receptor, the pIC50 was 8.11 and the “ratio IC50 hV2/hV1a” value came out at 3.9. Besides, on human V2 receptor, the pIC50 is 7.52.

For the molecule `C[C@H](OC(N)=O)c1nc(Cn2nc(-c3ccc(Cl)cc3)n(C[C@H](O)C(F)(F)F)c2=O)nn1-c1c(Cl)cncc1Cl` [Example 19, (1S)-1-[3-({3-(4-Chlorophenyl)-5-oxo-4-[(2S)-3,3,3-trifluoro-2-hydroxypropyl]-4,5-dihydro-1H-1,2,4-triazol-1-yl}methyl)-1-(3,5-dichloropyridin-4-yl)-1H-1,2,4-triazol-5-yl]ethyl Carbamate], at human V1a receptor, the pIC50 was 8.81 and the “ratio IC50 hV2/hV1a” value is listed as 40.7. For the same molecule, the pIC50 at human V2 receptor was 7.20.
